# Assay results from patent US20080305186A1, “Method and Composition for the Treatment of Cardiac Hypertrophy” (BOARD OF REGENTS, THE UNIVERSITY OF TEXAS SYSTEM, priority 2007, published 2008).
# Test system: cardiac gene expression
# Assay: Microarray analysis of cardiac gene expression (GeneChip Mouse Genome 430 2.0)
# Format: in vivo, mice
# Method: Microarray Sample Preparation and Analysis. Animal hearts were rapidly removed, and the atria and right ventricles were cut and immediately plunged into TRIzol Reagent (Life Technologies). Total RNA was isolated following the manufacturer's instructions, purified by phenol-chloroform extraction and then ethanol precipitation, and 20 μg further processed for microarray analysis. Briefly, cDNA synthesis, in vitro transcription, and labeling and fragmentation to produce the oligonucleotide probes were performed as instructed by the GeneChip manufacturer (Affymetrix). The probes were first hybridized to a test array (Affymetrix) and then to the GeneChip Mouse Genome 430 2.0 Array, using the GeneChip Hybridization Oven 640. The chips were washed in a GeneChip Fluidics Station 450 (Affymetrix), and the results were visualized with a GeneChip G7 scanner (Affymetrix). RMA normalization, pairwise comparisons, Student's t test and Benjamini and Hochberg correction were subsequently performed using GeneSifter (VizX Labs, Seattle, Wash.) and Spotfire DecisionSite 8.3 (Spotfire, Inc., Somerville, Mass.).
# Effects on Gene Expression Profile. […] One mouse heart was used for each array, and was performed in triplicate, generating a total of 12 arrays. GeneSifter was used to perform RMA normalization, pairwise comparisons of averaged signal intensity values, and Student's t-test with Benjamini and Hochberg correction, and Spotfire was used to perform pairwise comparisons. […] Additionally, genes that were altered between any two N or cardiac hypertrophy samples were removed, as these alterations most likely represented normal variations between mice.
# [1] = CH vs drug-treated isoproterenol mice
smiles,measurement,setting,value
C[C@H]1c2cccc(O)c2C(=O)C2=C(O)[C@]3(O)C(=O)C(C(N)=O)=C(O)[C@@H](N(C)C)[C@@H]3[C@@H](O)[C@@H]21 [doxycycline],"Number of Altered Genes, Average FC (1.5-fold)",[1],2929
same,"Number of Altered Genes, Average FC (2-fold)",[1],417
same,"Number of Altered Genes, Minus disease variability",[1],578
same,"Number of Altered Genes, Minus natural variability",[1],994
same,"Number of Altered Genes, Reproducible",[1],497
same,"Number of Altered Genes, Student's t test",[1],2274
same,"Number of Altered Genes, Correction","CH vs drug-treated isoproterenol mice, Benjamini and Hochberg",2034
same,"Number of Altered Genes, Disease-specific","CH vs drug-treated isoproterenol mice, of 779 genes altered N vs CH, altered in the reverse direction",327
same,FC EST,"GenBank AA419994, vs mice given only isoproterenol",−1.7
same,FC Metallothionein 2 (Mt2),"GenBank AA796766, vs mice given only isoproterenol",−5.5
same,FC Prostaglandin D synthetase (Ptgds),"GenBank AB006361, vs mice given only isoproterenol",−2.0
same,"FC Potassium channel, subfamily K, member 3 (Kcnk3)","GenBank AF065162, vs mice given only isoproterenol",1.7
same,FC Small inducible cytokine A9 (Scya9) (Ccl9) (Mip-1[…]),"GenBank AF128196, vs mice given only isoproterenol",−2.0
same,FC Group V phospholipase A2 (Pla2g5),"GenBank AF162713, vs mice given only isoproterenol",2.2
same,FC GABA-A receptor-associated protein-like protein 1 (Gabarapl1),"GenBank AF180518, 1st listing, vs mice given only isoproterenol",−3.6
same,FC GABA-A receptor-associated protein-like protein 1 (Gabarapl1),"GenBank AF180518, 2nd listing, vs mice given only isoproterenol",−3.1
same,FC Toll-like receptor 4 (TLR4),"GenBank AF185285, heart, drug + isoproterenol vs isoproterenol-only mice, CH vs normal FC 2.2",−1.9 fold
same,FC TSC22-related inducible leucine zipper 3c (Tilz3c) (Dsip1),"GenBank AF201289, heart, drug + isoproterenol vs isoproterenol-only mice, CH vs normal FC 2.7",−2.3 fold
same,FC Homeodomain interacting protein kinase 2 (Hipk2),"GenBank AF208292, vs mice given only isoproterenol",1.9
same,FC Cytochrome b-5 reductase (Cyb5r3),"GenBank AF332060, vs mice given only isoproterenol",1.7
same,FC Transcription factor myocardin (Myocd),"GenBank AF384055, heart, drug + isoproterenol vs isoproterenol-only mice, CH vs normal FC −1.6",4.0 fold
same,FC F-box-WD40 repeat protein 6 (Fbxw6),"GenBank AF391192, vs mice given only isoproterenol",2.9
same,FC F-box only protein 32 (Fbxo32),"GenBank AF441120, vs mice given only isoproterenol",−3.3
same,FC FK506 binding protein 5 (51 kDa) (Fkbp5),"GenBank AI098139, vs mice given only isoproterenol",−4.1
same,"FC Myosin binding protein C, fast-type (Mybpc2)","GenBank AI326984, vs mice given only isoproterenol",−3.2
same,FC Heparan sulfate 2-O-sulfotransferase 1 (Hs2st1),"GenBank AI451467, vs mice given only isoproterenol",2.2
same,FC EST,"GenBank AI467657, 1st listing, vs mice given only isoproterenol",−1.9
same,FC EST,"GenBank AI467657, 2nd listing, vs mice given only isoproterenol",−1.6
same,FC EST,"GenBank AI480750, vs mice given only isoproterenol",1.7
same,FC Interferon activated gene 205 (Ifi205),"GenBank AI481797, vs mice given only isoproterenol",−2.2
same,"FC Protein tyrosine phosphatase, receptor-type, F interacting protein, binding protein 2 (Ppfibp2)","GenBank AI503166, vs mice given only isoproterenol",−2.0
same,FC Dipeptidase 1 (Dpep1),"GenBank AI647687, vs mice given only isoproterenol",−2.0
same,"FC Homocysteine-inducible, endoplasmic reticulum stress-inducible, ubiquitin-like domain member 1 (Herpud1)","GenBank AI835088, vs mice given only isoproterenol",−3.0
same,"FC Sulfotransferase family 1A, phenol-preferring, member 1 (Sult1a1)","GenBank AK002700, vs mice given only isoproterenol",−3.7
same,FC GPI-ahored HDL-binding protein 1 (Gpihbp1),"GenBank AK003305, vs mice given only isoproterenol",−1.8
same,FC Ets variant gene 5 (Etv5),"GenBank AK003461, vs mice given only isoproterenol",−2.0
same,FC Peptidylprolyl isomerase (cyclophilin)-like 1 (Ppil1),"GenBank AK004331, vs mice given only isoproterenol",1.8
same,FC Extra cellular link domain-containing 1 (Xkd1),"GenBank AK004726, vs mice given only isoproterenol",−1.8
same,FC SRY-box containing gene 17 (Sox17),"GenBank AK004781, vs mice given only isoproterenol",−1.6
same,"FC Phospholipase A2 group VII (platelet-activating factor acetylhydrolase, plasma) (Pla2g7)","GenBank AK005158, vs mice given only isoproterenol",−2.2
same,FC Methyl-CpG binding domain protein 1 (Mbd1),"GenBank AK007371, 1st listing, vs mice given only isoproterenol",−2.5
same,FC Methyl-CpG binding domain protein 1 (Mbd1),"GenBank AK007371, 2nd listing, vs mice given only isoproterenol",−2.0
same,FC Homeobox only domain (Hod),"GenBank AK009007, vs mice given only isoproterenol",1.5
same,FC F-box and leucine-rich repeat protein 20 (Fbxl20),"GenBank AK012109, vs mice given only isoproterenol",−2.0
same,FC Dual specificity phosphatase 4 (Dusp4),"GenBank AK012530, vs mice given only isoproterenol",−2.4
same,FC Hydroxyacylglutathione hydrolase-like (Haghl),"GenBank AK012748, vs mice given only isoproterenol",2.0
same,FC Leucine-rich repeat-containing 52 (Lrrc52),"GenBank AK015134, vs mice given only isoproterenol",−2.6
same,FC Sphingosine kinase 2 (Sphk2),"GenBank AK016616, vs mice given only isoproterenol",1.5
same,FC DNA-damage-inducible transcript 4 (Ddit4),"GenBank AK017926, vs mice given only isoproterenol",−5.6
same,FC Kelch-like 24 (Khl24),"GenBank AK018314, vs mice given only isoproterenol",−2.1
same,"FC Transforming, acidic coiled-coil containing protein (Tacc1)","GenBank AK019530, heart, drug + isoproterenol vs isoproterenol-only mice, CH vs normal FC −2.1",3.2 fold
same,FC Protein arginine N-methyltransferase 1 (Prmt1),"GenBank AK020120, vs mice given only isoproterenol",1.8
same,FC Hydroxyacylglutathione hydrolase-like (Haghl),"GenBank AK021220, vs mice given only isoproterenol",1.8
same,FC Phosphodiesterase 7A (Pde7a),"GenBank AU015378, vs mice given only isoproterenol",−2.2
same,FC p53 regulated PA26 nuclear protein (Sestrin 1) (Sesn1),"GenBank AV016566, vs mice given only isoproterenol",−2.3
same,FC EST,"GenBank AV032877, vs mice given only isoproterenol",−1.5
same,FC Ectonucleoside triphosphate diphosphohydrolase 1 (Entpd1),"GenBank AV117919, vs mice given only isoproterenol",−2.1
same,FC F-box and leucine-rich repeat protein 20 (Fbxl20),"GenBank AV120094, vs mice given only isoproterenol",−1.5
same,FC Transthyretin (Ttr),"GenBank AV152953, heart, drug + isoproterenol vs isoproterenol-only mice, CH vs normal FC 4.4",−2.8 fold
same,"FC Solute carrier family 10 (sodium/bile acid cotransporter family), member 6 (Slc10a6)","GenBank AV244484, vs mice given only isoproterenol",−5.3
